The record followed here is ChEMBL document CHEMBL1697821, “Development of a phospholipidosis database and predictive quantitative structure-activity relationship (QSAR) models” (Toxicol Mech Methods, 2008).

This data set relates to Phospholipidosis. Put plainly: Literature-mined public compounds from Kruhlak et al phospholipidosis modelling dataset.
Consider `O=C1OC(c2ccc(O)cc2)(c2ccc(O)cc2)c2ccccc21` [PHENOLPHTHALEIN], for which the Phospholipidosis result is “Negative: based on the absence of positive reported data from WMDD”.
With `N=C(N)N1CCc2ccccc2C1` [DEBRISOQUIN] the entry was “Negative: based on the absence of positive reported data from WMDD”; with `OCCN1CCN(CCCN2c3ccccc3Sc3ccc(Cl)cc32)CC1` [PERPHENAZINE], “Negative: based on the absence of positive reported data from WMDD”.
For `CC(CN(C)C)C(C)(O)Cc1ccc(Cl)cc1` (stereo unspecified) [CLOBUTINOL] the value was “Negative: based on the absence of positive reported data from WMDD”.
Regarding `CC1(C)OC[C@H]([C@@H](CS(=O)(=O)c2ccc(Oc3ccc(OC(F)(F)F)cc3)cc2)N(O)C=O)O1`, the Phospholipidosis result is on record as “Negative: confirmed by electron microscopy”.
For `OC(CN1CCCCC1)c1ccc(C=C2c3ccccc3-c3ccccc32)cc1` (stereo unspecified) the value was “Positive: strong inducer confirmed by electron microscopy”; for `CCC1(CC)C(=O)NCC(C)C1=O` (stereo unspecified) [METHYPRYLON], “Negative: based on the absence of positive reported data from WMDD”; for `CCN(CC)C(=S)S` [DITIOCARB], “Negative: based on the absence of positive reported data from WMDD”.
For `CC(O)Cn1cnc2c1c(=O)n(C)c(=O)n2C` (stereo unspecified) [PROXYPHYLLINE] the value was “Negative: based on the absence of positive reported data from WMDD”.
As for `Cc1ncc2n1-c1ccc(Cl)cc1C(c1ccccc1F)=NC2` [MIDAZOLAM], the Phospholipidosis entry is “Negative: based on the absence of positive reported data from WMDD”.
Regarding `CC1=CC(=O)c2ccccc2C1=O` [MENADIONE], the Phospholipidosis result is listed as “Negative: confirmed by electron microscopy”.
With `C#C[C@]1(O)CC[C@H]2[C@@H]3CCc4cc(O)ccc4[C@H]3CC[C@@]21C` [ETHINYL ESTRADIOL] the entry was “Negative: based on the absence of positive reported data from WMDD”; with `C=C1/C(=C\C=C2/CCC[C@]3(C)[C@@H]([C@H](C)CCCC(C)(C)O)CC[C@@H]23)C[C@@H](O)C[C@@H]1O` [CALCITRIOL], “Negative: based on the absence of positive reported data from WMDD”.
For `CC[N+]1(C)[C@@H]2CC(OC(=O)[C@H](CO)c3ccccc3)C[C@H]1[C@@H]1O[C@@H]12.[Br-]` (stereo partly specified) [OXITROPIUM BROMIDE] the value was “Negative: based on the absence of positive reported data from WMDD”.
As for `C[C@H]1C[C@H]2[C@@H]3CCC4=CC(=O)C=C[C@]4(C)[C@H]3C(=O)C[C@]2(C)[C@@]1(O)C(=O)CO` [MEPREDNISONE], the Phospholipidosis result was “Negative: based on the absence of positive reported data from WMDD”.
With `CCC(=O)Oc1ccc2c(c1)CC[C@@H]1[C@@H]2CC[C@]2(C)[C@@H](OC(=O)CC)CC[C@@H]12` [ESTRADIOL DIPROPIONATE] the entry was “Negative: based on the absence of positive reported data from WMDD”.
For the molecule `Cn1c(=O)c2c(ncn2CC(O)CO)n(C)c1=O` (stereo unspecified) [DYPHYLLINE], the Phospholipidosis entry is “Negative: based on the absence of positive reported data from WMDD”.
`C[n+]1ccc(-c2cc[n+](C)cc2)cc1`: the Phospholipidosis result is recorded as “Positive: strong inducer confirmed by electron microscopy”.
For `CC(C(=O)O)c1ccc2c(c1)Cc1cccnc1O2` (stereo unspecified) [PRANOPROFEN] the value was “Negative: based on the absence of positive reported data from WMDD”; for `CCC1(c2ccccc2)C(=O)NC(=O)NC1=O` [PHENOBARBITAL], “Negative: confirmed by electron microscopy”; for `CC[C@]1(O)C[C@@H]2CN(CCc3c([nH]c4ccccc34)[C@@](C(=O)OC)(c3cc4c(cc3OC)N(C)[C@H]3[C@@](O)(C(N)=O)[C@H](O)[C@]5(CC)C=CCN6CC[C@]43[C@@H]65)C2)C1` [VINDESINE], “Negative: based on the absence of positive reported data from WMDD”.
For `CC1(C)S[C@@H]2[C@H](NC(=O)[C@H](NC(=O)N3CCN(S(C)(=O)=O)C3=O)c3ccccc3)C(=O)N2[C@H]1C(=O)O` [MEZLOCILLIN] the value was “Negative: based on the absence of positive reported data from WMDD”; for `CNC[C@H](O)c1ccc(O)c(O)c1` [EPINEPHRINE], “Negative: based on the absence of positive reported data from WMDD”; for `CC1(C)S[C@@H]2[C@H](N3C(=O)[C@@H](c4ccccc4)NC3(C)C)C(=O)N2[C@H]1C(=O)O` [HETACILLIN], “Negative: based on the absence of positive reported data from WMDD”.
With `CO[C@@]1(NC(=O)C2SC(=C(C(N)=O)C(=O)O)S2)C(=O)N2C(C(=O)O)=C(CSc3nnnn3C)CS[C@@H]21` (stereo partly specified) [CEFOTETAN] the entry was “Negative: based on the absence of positive reported data from WMDD”; with `Cc1ccc2c(-c3ccccc3)nc(=O)n(C(C)C)c2c1` [PROQUAZONE], “Negative: based on the absence of positive reported data from WMDD”; with `CN[C@H]1CC[C@@H](c2ccc(Cl)c(Cl)c2)c2ccccc21` [SERTRALINE], “Positive: weak inducer based on presence of foamy macrophages and cytoplasmic vacuolations”.
Consider `CC(C)(N)CO` [DEANOL], for which the Phospholipidosis entry is listed as “Negative: based on the absence of positive reported data from WMDD”.
For `CCC[C@@H]1C[C@@H](C(=O)N[C@@H]([C@H]2O[C@H](SC)[C@H](O)[C@@H](O)[C@H]2O)[C@H](C)Cl)N(C)C1` [CLINDAMYCIN] the value was “Positive: strong inducer confirmed by electron microscopy”.
`O=C(O)c1ccccc1Nc1cccc(C(F)(F)F)c1` [FLUFENAMIC ACID]: the Phospholipidosis entry is on record as “Negative: based on the absence of positive reported data from WMDD”.
With `Clc1ccc2nsnc2c1NC1=NCCN1` [TIZANIDINE] the entry was “Negative: based on the absence of positive reported data from WMDD”.
With `NCCCC[C@H](N)C(=O)O` [LYSINE] the entry was “Negative: based on the absence of positive reported data from WMDD”; with `Nc1ncnc2c1ncn2[C@@H]1O[C@H](CO)[C@@H](O)[C@H]1O` [ADENOSINE], “Negative: based on the absence of positive reported data from WMDD”.
In the case of `CN(C)CCC=C1c2ccccc2CCc2c(Cl)cccc21`, the Phospholipidosis entry is given as “Positive: strong inducer confirmed by electron microscopy”.
For `COc1cc(NS(=O)(=O)c2ccc(N)cc2)nc(OC)n1` [SULFADIMETHOXINE], the Phospholipidosis entry is reported as “Negative: based on the absence of positive reported data from WMDD”.
With `CCCC(C)C1(CC)C(=O)NC(=O)NC1=O` (stereo unspecified) [PENTOBARBITAL] the entry was “Negative: based on the absence of positive reported data from WMDD”.
For POLYSORBATE 80 the value was “Negative: based on the absence of positive reported data from WMDD”; for `CCCCC(C)(O)C/C=C/[C@H]1[C@H](O)CC(=O)[C@@H]1CCCCCCC(=O)OC` (stereo partly specified) [MISOPROSTOL], “Negative: based on the absence of positive reported data from WMDD”.
For `O=C1CN=C(c2ccccc2)c2cc([N+](=O)[O-])ccc2N1` [NITRAZEPAM] the value was “Negative: based on the absence of positive reported data from WMDD”.
Consider `CCN(CC)CCCC(C)Nc1c2ccc(Cl)cc2nc2ccc(OC)cc12` (stereo unspecified) [QUINACRINE], for which the Phospholipidosis result is given as “Positive: strong inducer confirmed by electron microscopy”.
With `CC(=O)Nc1ccc(OC(=O)c2ccccc2OC(C)=O)cc1` [BENORILATE] the entry was “Negative: based on the absence of positive reported data from WMDD”; with `Oc1c(I)cc(Cl)c2cccnc12` [CLIOQUINOL], “Negative: based on the absence of positive reported data from WMDD”; with `O=C1Cc2cc(CCN3CCN(c4nsc5ccccc45)CC3)c(Cl)cc2N1` [ZIPRASIDONE], “Negative: based on the absence of positive reported data from WMDD”.
Consider `CC1(C)OCC(C(CS(=O)(=O)c2ccc(Oc3cccc(OC(F)(F)F)c3)cc2)NC=O)O1` (stereo unspecified), for which the Phospholipidosis entry is “Negative: confirmed by electron microscopy”.
With `CCC(=O)c1ccc2c(c1)N(CC(C)N(C)C)c1ccccc1S2` (stereo unspecified) [PROPIOMAZINE] the entry was “Negative: based on the absence of positive reported data from WMDD”; with `FC(F)(F)c1ccc(-c2ccc(OCCN3CCCC3)cc2)cc1` [BOXIDINE], “Positive: strong inducer confirmed by electron microscopy”; with `CC(C)(C)NCC(O)COc1ccccc1C#N` (stereo unspecified) [BUNITROLOL], “Negative: based on the absence of positive reported data from WMDD”.
With `CN1Cc2c(N)cccc2C(c2ccccc2)C1` (stereo unspecified) [NOMIFENSINE] the entry was “Negative: based on the absence of positive reported data from WMDD”; with `CC[C@]1(O)C[C@@H]2CN(CCc3c([nH]c4ccccc34)[C@@](C(=O)OC)(c3cc4c(cc3OC)N(C)[C@H]3[C@@](O)(C(=O)OC)[C@H](OC(C)=O)[C@]5(CC)C=CCN6CC[C@]43[C@@H]65)C2)C1` [VINBLASTINE], “Negative: confirmed by electron microscopy”.
With `COCCc1ccc(OCC(O)CNC(C)C)cc1` (stereo unspecified) [METOPROLOL] the entry was “Negative: based on the absence of positive reported data from WMDD”; with `[H]/N=C(/N)N[C@H]1[C@H](O)[C@@H](O)[C@H](O[C@@H]2O[C@@H](C)[C@](O)(C=O)[C@H]2O[C@@H]2O[C@@H](CO)[C@H](O)[C@@H](O)[C@@H]2NC)[C@@H](N/C(N)=N\[H])[C@@H]1O` [STREPTOMYCIN], “Negative: based on the absence of positive reported data from WMDD”.
As to `CN(C)/C=N/c1c(I)cc(I)c(CCC(=O)O)c1I` [IPODATE], the Phospholipidosis result is listed as “Negative: based on the absence of positive reported data from WMDD”.
As for `O=C(CCCN1CCC(O)(c2cccc(C(F)(F)F)c2)CC1)c1ccc(F)cc1` [TRIFLUPERIDOL], the Phospholipidosis result is “Negative: based on the absence of positive reported data from WMDD”.
For `CC(=O)Nc1ccc(O)cc1` [ACETAMINOPHEN] the value was “Negative: confirmed by electron microscopy”.
Take `CN(C)C(=N)N=C(N)N` [METFORMIN]: the Phospholipidosis entry is reported as “Negative: confirmed by electron microscopy”.
For `CC(C)(C)c1ccc(CN2CCN(C(c3ccccc3)c3ccc(Cl)cc3)CC2)cc1` (stereo unspecified) [BUCLIZINE] the value was “Negative: based on the absence of positive reported data from WMDD”.
